This is an account of results in ChEMBL document CHEMBL2424629, “Structure-based design, synthesis, and anticonvulsant activity of isatin-1-N-phenylacetamide derivatives” (Med Chem Res, 2013).

The subject of series [1] is Mus musculus. Put plainly: Anticonvulsant activity in BALB/c mouse assessed as protection against maximal electroshock-induced seizure at 300 mg/kg, ip after 0.5 to 4 hrs. Further details: dose 300 mg/kg. Type of series: functional, organism-based.
Series [2] relates to Mus musculus. Briefly: Neurotoxicity in BALB/c mouse at 100 mg/kg, ip after 0.5 to 4 hrs by rotarod test. Type of series: toxicity, organism-based. Further details: dose 100 mg/kg, route intraperitoneal. The following applies: in vivo.
Series [3] relates to Mus musculus. Put plainly: Neurotoxicity in BALB/c mouse at 300 mg/kg, ip after 0.5 to 4 hrs by rotarod test. The format is toxicity, organism-based. Further details: dose 300 mg/kg, route intraperitoneal. The following applies: in vivo. (The rotarod test checks motor coordination on a turning rod.)
Series [4] relates to Mus musculus. Briefly: Anticonvulsant activity in BALB/c mouse assessed as protection against maximal electroshock-induced seizure at 100 mg/kg, ip after 0.5 to 4 hrs. The format is functional, organism-based. Further details: dose 100 mg/kg. On the technique in general: In the maximal electroshock model the usual endpoint is tonic extension of the hind limbs.
For series [5], the system named is Mus musculus. Briefly: Anticonvulsant activity in ip dosed BALB/c mouse assessed as protection against maximal electroshock-induced seizure after 30 mins. Type of series: functional. The settings on record: 0.5 h.
The species named for series [6] is Mus musculus. Briefly: Protective index, ratio of TD50 for BALB/c mouse by rotarod test to ED50 for BALB/c mouse by maximal electroshock seizure test. Type of series: functional.
Series [7] in a line: Neurotoxicity in ip dosed BALB/c mouse after 30 mins by rotarod test. Type of series: toxicity, organism-based. The settings on record: in vivo.

Activity calls are given as the source filed them. The rule behind the calls is not given here.

As for `O=C1Nc2ccccc2C1=O` [ISATIN], the result in the series with Mus musculus [1] was Active. In addition, the Activity entry in the series on Mus musculus [2] and in the series with Mus musculus [3] was “Non-toxic” in each case.
As to `O=C(CN1C(=O)C(=O)c2cccc(Br)c21)Nc1ccccc1`, in the series on Mus musculus [4], the result was inactive. For the same compound, the Activity result with Mus musculus [2] and with Mus musculus [3] was “Non-toxic” throughout.
Turning to `O=C(CN1C(=O)C(=O)c2ccc(Cl)cc21)Nc1ccccc1`, the result with Mus musculus [4] was inactive. The Activity result with Mus musculus [2] and in the series with Mus musculus [3] was “Non-toxic” in each case.
Take `O=C(CN1C(=O)C(=O)c2cc(Br)cc(Br)c21)Nc1ccccc1`: in the series on Mus musculus [1], the outcome was Active. The Activity entry with Mus musculus [2] and in the series with Mus musculus [3] was “Non-toxic” in each case.
`O=C(CN1C(=O)C(=O)c2cccc([N+](=O)[O-])c21)Nc1ccccc1`: in the series on Mus musculus [4], the outcome was Active. Besides, the Activity result with Mus musculus [2] and with Mus musculus [3] was “Non-toxic” throughout.
Regarding `O=C(CN1C(=O)C(=O)c2ccc(F)cc21)Nc1ccccc1`, the result in the series on Mus musculus [4] was inactive. The Activity entry with Mus musculus [2] and with Mus musculus [3] was “Non-toxic” each time.
For orientation: ED50 means the dose that gives a 50% effect, or the effect in half of the subjects. The term TD50 denotes the 50% point of the dose-response relation for the toxic effect studied. Lower therefore signals harm at a small dose. For `O=C(CN1C(=O)C(=O)c2ccccc21)Nc1ccccc1`, the ED50 in the series on Mus musculus [5] is 94.7 mg/kg. For the same compound, the “Ratio TD50/ED50” value in the series filed under Mus musculus [6] was above 10.6. In series [7], this compound returned a TD50 at 0.5 h above 1000 mg/kg. Also, the outcome in the series with Mus musculus [4] was Active. Further, the Activity entry in the series on Mus musculus [2] and in the series with Mus musculus [3] was “Non-toxic” throughout.
On to `Cc1cccc2c1N(CC(=O)Nc1ccccc1)C(=O)C2=O`, for which the ED50 in the series with Mus musculus [5] was determined as 114 mg/kg. Also, the “Ratio TD50/ED50” value in the series listed under Mus musculus [6] is reported as above 8.8. In series [7], this compound displayed a TD50 at 0.5 h above 1000 mg/kg. Moreover, the outcome in the series with Mus musculus [4] was Active. For the same compound, the Activity result with Mus musculus [2] and in the series on Mus musculus [3] was “Non-toxic” in each case.
With `O=C(CN1C(=O)C(=O)c2cccc(Cl)c21)Nc1ccccc1`, the result in the series with Mus musculus [4] was Active. For the same compound, the Activity entry in the series with Mus musculus [2] and in the series on Mus musculus [3] was “Non-toxic” throughout.
On to `Cc1ccc2c(c1)C(=O)C(=O)N2CC(=O)Nc1ccccc1`, for which the ED50 with Mus musculus [5] turned out to be 91.3 mg/kg. For the same compound, the “Ratio TD50/ED50” value in the series listed under Mus musculus [6] is listed as above 11. In series [7], this compound gave a TD50 at 0.5 h above 1000 mg/kg. In the series on Mus musculus [4], the outcome was Active. The Activity result with Mus musculus [2] and in the series with Mus musculus [3] was “Non-toxic” each time.
Consider `O=C(CN1C(=O)C(=O)c2ccc(Br)cc21)Nc1ccccc1`, for which, in the series with Mus musculus [4], the outcome was inactive. In addition, the Activity entry with Mus musculus [2] and with Mus musculus [3] was “Non-toxic” each time.
In the case of `NC(=O)N1c2ccccc2C=Cc2ccccc21` [CARBAMAZEPINE], the ED50 with Mus musculus [5] is 8.8 mg/kg. In series [7], this compound gave a TD50 at 0.5 h above 71.6 mg/kg.
As to `Cc1ccc2c(c1)N(CC(=O)Nc1ccccc1)C(=O)C2=O`, the ED50 in the series on Mus musculus [5] came to 136 mg/kg. Moreover, the “Ratio TD50/ED50” value in the series listed under Mus musculus [6] was above 7.3. For the same compound, the TD50 at 0.5 h in series [7] was above 1000 mg/kg. In the series with Mus musculus [4], the outcome was Active. Also, the Activity result in the series with Mus musculus [2] and with Mus musculus [3] was “Non-toxic” in each case.
Turning to `O=C(CN1C(=O)C(=O)c2cc(Br)ccc21)Nc1ccccc1`, in the series with Mus musculus [4], the result was Active. Also, the Activity entry in the series with Mus musculus [2] and with Mus musculus [3] was “Non-toxic” throughout.
For `O=C(CN1C(=O)C(=O)c2cc(Cl)ccc21)Nc1ccccc1`, the ED50 in the series on Mus musculus [5] stood at 110 mg/kg. For the same compound, the “Ratio TD50/ED50” value in the series listed under Mus musculus [6] was above 7.3. In series [7], this compound registered a TD50 at 0.5 h above 800 mg/kg. The outcome in the series on Mus musculus [4] was Active. In addition, the Activity entry in the series with Mus musculus [2] and in the series with Mus musculus [3] was “Non-toxic” throughout.
On to `O=C(CN1C(=O)C(=O)c2cc(F)ccc21)Nc1ccccc1`, for which the ED50 with Mus musculus [5] amounted to 88 mg/kg. In addition, in the series listed under Mus musculus [6], the “Ratio TD50/ED50” value is above 9.1. Also, in series [7], the TD50 at 0.5 h is above 800 mg/kg. In addition, the outcome with Mus musculus [4] was Active. Besides, the Activity result in the series on Mus musculus [2] and with Mus musculus [3] was “Non-toxic” throughout.
For `CCC1(c2ccccc2)C(=O)NC(=O)NC1=O` [PHENOBARBITAL], the ED50 with Mus musculus [5] amounted to 21.8 mg/kg. The TD50 at 0.5 h in series [7] was above 69 mg/kg.
